Like-named read-outs stand apart in the source and are kept apart here.
What was measured:
[1] = tested on: 2008/C13*5.25 (resistant) ovarian cancer cell line; experiment: colony survival after ERCC1-XPF siRNA and cisplatin treatment; format: cell-based; details: control siRNA; 2008/C13*5.25 vs 2008
Description: FIG. 1: Colony survival in matched ovarian cancer cell lines. 2008 (sensitive, squares) and 2008/C13*5.25 (resistant, circles) ovarian cancer cell lines were transfected with control or ERCC1-XPF siRNA and subjected to cisplatin treatment. IC50 values are indicated.
In order to assess whether ERCC1-XPF influences cisplatin resistance in ovarian cancer cell lines, a matched set of parental sensitive (2008s) and daughter resistant cell lines (2008/C13*5.25) were obtained. These are well characterized cell lines for assessing cisplatin resistance and effects in ovarian cancer.
Following greater than 90% ERCC1-XPF knockdown (data not shown), the resistant daughter cell line has a nearly 5-fold change in cisplatin sensitivity, making the cells as sensitive as the parental sensitive cell line (compare open circles with filled squares).

ERCC1-XPF endonuclease = molecular target: T1, ERCC1-XPF endonuclease (Homo sapiens, UniProt P07992+Q92889); experiment: fluorescence based DNA incision assay with purified ERCC1-XPF; format: biochemical; details: purified enzyme, forked fluorescent DNA substrate
T1 sequence (Q92889 1-916): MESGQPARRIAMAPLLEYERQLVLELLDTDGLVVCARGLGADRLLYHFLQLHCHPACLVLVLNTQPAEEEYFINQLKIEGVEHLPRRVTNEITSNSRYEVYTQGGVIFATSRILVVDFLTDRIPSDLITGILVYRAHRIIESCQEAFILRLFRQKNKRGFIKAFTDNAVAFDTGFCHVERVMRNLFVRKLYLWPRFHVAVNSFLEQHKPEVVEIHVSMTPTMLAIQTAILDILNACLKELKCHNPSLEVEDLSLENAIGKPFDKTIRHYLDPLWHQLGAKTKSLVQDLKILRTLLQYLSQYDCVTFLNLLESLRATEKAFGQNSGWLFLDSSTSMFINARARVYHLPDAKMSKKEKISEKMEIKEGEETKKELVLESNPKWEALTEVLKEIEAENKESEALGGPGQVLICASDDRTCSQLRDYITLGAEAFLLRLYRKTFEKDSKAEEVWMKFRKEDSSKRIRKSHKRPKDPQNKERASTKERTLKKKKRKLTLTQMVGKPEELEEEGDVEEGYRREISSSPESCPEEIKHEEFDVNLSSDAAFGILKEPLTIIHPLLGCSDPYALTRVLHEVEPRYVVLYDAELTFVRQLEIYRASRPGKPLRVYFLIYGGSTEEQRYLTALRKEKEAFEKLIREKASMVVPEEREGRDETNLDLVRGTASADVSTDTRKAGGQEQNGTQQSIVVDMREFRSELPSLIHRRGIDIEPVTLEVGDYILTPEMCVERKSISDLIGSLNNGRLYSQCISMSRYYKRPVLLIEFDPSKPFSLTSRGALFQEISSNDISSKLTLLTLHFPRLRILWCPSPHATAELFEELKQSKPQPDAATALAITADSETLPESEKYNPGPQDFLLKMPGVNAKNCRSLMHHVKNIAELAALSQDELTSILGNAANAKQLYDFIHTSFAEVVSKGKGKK
T1 sequence (P07992 1-297): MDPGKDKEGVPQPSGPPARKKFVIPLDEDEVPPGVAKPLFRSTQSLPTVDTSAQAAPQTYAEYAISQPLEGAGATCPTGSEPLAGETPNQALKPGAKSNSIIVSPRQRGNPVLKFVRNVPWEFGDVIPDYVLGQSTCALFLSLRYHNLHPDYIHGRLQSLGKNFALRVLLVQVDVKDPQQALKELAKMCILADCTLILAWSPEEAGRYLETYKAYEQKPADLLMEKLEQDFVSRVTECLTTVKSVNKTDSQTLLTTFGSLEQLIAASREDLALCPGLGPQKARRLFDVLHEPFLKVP
Description: Described herein is a robust fluorescence based incision assay which was used to initially screen a diverse drug library (˜2,000 compounds) in order to identify inhibitors of the ERCC1-XPF endonuclease. From the initial screen, five (5) small molecule Hits were identified that inhibited ERCC1-XPF nuclease activity with micromolar to nanomolar potency.
(§1) For at least one reason, the lead compound was selected based on having nanomolar potency in the fluorescence assay (FIG. 2) and having the best response in enhancing cisplatin efficacy in cell culture models. Titration of lead compound in the ERCC1-XPF fluorescence assay yields an IC50 value of 400-500 nM (FIG. 2).
(§2) The synthesized compounds were tested in the in vitro fluorescence incision assay and radiolabeled DNA incision assay for potency and selectivity against ERCC1-XPF. These assays are based on forked synthetic DNA substrates and purified enzyme. The fluorescent DNA substrate is designed such that a fluorophore (Fl) is incorporated into the top DNA strand while a quencher (Q) molecule is incorporated in the bottom DNA strand and in close proximity to the Fl (FIG. 5).
When the DNA substrate is annealed, the Q quenches the fluorescent signal and results in low background fluorescence. […]

cell culture = experiment: enhancement of cisplatin efficacy in cell culture; format: cell-based
Description: The Tosyl adduct is necessary for compound 1's ability to enhance cisplatin activity and inhibit DNA repair. Without this functionality, no activity in cell culture was observed. Derivatives synthesized in Pathways B and C, take further advantage of the Tosyl functional group, including the sulfonate linkage itself. Pathway B focuses on varying the substitution on the toluene ring. By substitution of the methyl substituent with hydrogen (3a), as well as a halogen (3c) or a propyl group (3d), steric tolerance is adjusted at this position. Alternatively, addition of a heteroatom within the aromatic ring, whether it is an oxygen (3e) or a nitrogen (3f), has little effect upon the steric environment but alters the electronic nature of this key substituent. Removal of the aromatic ring and replacement with an alkene (3b) encompasses both the steric and electronic features at this position. Pathway C exemplifies compounds with differing linkers to the tosyl moiety, namely substitution of the sulfonate as a thioether (4a), sulfoxide (4b), ester (4c), and ether (4d) or amine (4e).

ERCC1-XPF = molecular target: T2, ERCC1-XPF (Homo sapiens, UniProt P07992+Q92889); experiment: radiolabeled DNA incision assay (radiometric inhibition assay); format: biochemical; details: read-out: 50% inhibition in radiometric inhibition assay
T2 sequence (Q92889 1-916): T1 sequence (Q92889 1-916)
T2 sequence (P07992 1-297): T1 sequence (P07992 1-297)
Procedure: as §1, §2

[2] = tested on: cisplatin resistant ovarian cancer cell line (2008/C13*5.25); experiment: colony survival with cisplatin IC50 concentration, lead compound titrated (Combination Factor); format: cell-based; details: 2008/C13*5.25, colony survival
Procedure: (§3) Cells were treated with the cisplatin IC50 concentration while the lead compound was titrated into the experiment, and colony survival assessed. The Combination Factor is the concentration of lead compound that is required to enhance cisplatin IC50 values by 2-fold.

[3] = tested on: lung cancer cell line (H460); experiment: as above; format: cell-based
Procedure: as §3

Structure (SMILES): N.N.[Cl][Pt][Cl] [cisplatin]
- fold resistance to cisplatin, comparing IC50 values to the parental sensitive cell line [1]: ~4 fold

Structure (SMILES): COc1cc(S(=O)(=O)O)cc2cc(S(=O)(=O)O)cc(N)c12 [boxed portion of the molecule, reference compound]
- IC50 (ERCC1-XPF endonuclease; read-out: 50% fluorescent inhibition in the fluorescence incision assay): 3.2 to 3.6 µM
- effect in cell culture (cell culture; data not shown): no effect

Structure (SMILES): Cc1ccc(S(=O)(=O)Oc2cc(S(=O)(=O)O)cc3cc(S(=O)(=O)O)cc(N)c23)cc1 [compound 1]
- IC50 (ERCC1-XPF endonuclease; read-out: IC50 (50% inhibition) in ERCC1-XPF fluorescence assay): 0.4 to 0.5 µM
- IC50 (ERCC1-XPF): 0.4 to 0.5 µM
- Combination Factor: concentration of lead compound required to enhance cisplatin IC50 values by 2-fold [2]: low micromolar range
- Combination Factor: concentration of lead compound required to enhance cisplatin IC50 values by 2-fold [3]: 7 to 8 µM
- IC50 (cell culture; with cisplatin, cell line not stated, read-out: enhancing cisplatin efficacy in cell culture (IC50)): 4 µM
